{"source": "patent US11541062B2", "about": "“Methods of treating advanced prostate cancer” (priority 2017, dated 2023)", "key": {"[1]": {"experiment": "Serum concentration of androgen analogs after intravenous injection, by LC/MS", "assay_type": "in vivo", "conditions": "mouse, 50 ug, 50 μg intravenous, C57/B6 mice", "description": "FIG. 8. C57B6 mice were intravenously injected with 50 μg of IVMDHT, IVNDHT, and IVDHT. Blood samples were collected at 1, 2, 4, and 8 hours (n=4) and the serum concentrations of the compounds were analyzed by liquid chromatography mass spectrometry. With reference to 2 hours on FIG. 8, the upper line represents IVMDHT; the middle line represents IVNDHT, and the lower line represents IVDHT.\nTo assess the stability of different androgen analogs, 50 μg of IVDHT, IVNDHT, and IVMDHT was intravenously injected into C57/B6 mice. Blood samples were collected from the mice at 1, 2, 4, and 8 hours and analyzed by liquid chromatography/mass spectrometry (n=4)."}, "endogenous AR [2]": {"biological_target": "T1, endogenous AR (Homo sapiens, UniProt P10275, T878A)", "T1 construct": "translocate endogenous AR into the nucleus in LNCaP cells; endogenous in cells; host or cells: LNCaP", "T1 sequence (P10275 1-920 T878A)": "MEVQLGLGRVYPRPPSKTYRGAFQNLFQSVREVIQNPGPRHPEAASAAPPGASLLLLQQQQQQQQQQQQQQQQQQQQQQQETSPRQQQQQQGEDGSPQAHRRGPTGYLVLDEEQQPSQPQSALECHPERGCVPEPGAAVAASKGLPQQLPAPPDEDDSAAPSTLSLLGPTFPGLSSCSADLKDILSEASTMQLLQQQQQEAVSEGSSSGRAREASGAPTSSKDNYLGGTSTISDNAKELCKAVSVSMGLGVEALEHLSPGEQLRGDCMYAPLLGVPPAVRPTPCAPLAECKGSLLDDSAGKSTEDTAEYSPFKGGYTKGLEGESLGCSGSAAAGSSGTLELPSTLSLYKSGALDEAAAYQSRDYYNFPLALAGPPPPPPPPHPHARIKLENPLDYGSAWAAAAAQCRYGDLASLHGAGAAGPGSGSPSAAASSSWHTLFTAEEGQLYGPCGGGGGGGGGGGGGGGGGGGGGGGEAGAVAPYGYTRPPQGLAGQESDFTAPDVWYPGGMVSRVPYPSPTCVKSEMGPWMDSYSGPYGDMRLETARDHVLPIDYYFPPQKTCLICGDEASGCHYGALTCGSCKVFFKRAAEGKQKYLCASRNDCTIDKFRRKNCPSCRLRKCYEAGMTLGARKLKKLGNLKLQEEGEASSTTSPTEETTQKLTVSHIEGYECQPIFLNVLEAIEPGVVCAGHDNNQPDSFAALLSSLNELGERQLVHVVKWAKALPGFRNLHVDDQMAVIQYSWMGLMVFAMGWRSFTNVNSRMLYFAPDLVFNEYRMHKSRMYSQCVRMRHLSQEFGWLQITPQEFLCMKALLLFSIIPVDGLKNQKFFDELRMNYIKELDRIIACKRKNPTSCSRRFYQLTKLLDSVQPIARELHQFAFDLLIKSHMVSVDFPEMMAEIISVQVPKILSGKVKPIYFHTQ", "experiment": "Androgen-inducible (3ARE) luciferase reporter in LNCaP cells, endogenous AR transcriptional activity", "assay_type": "cell-based", "conditions": "no AR expression vector, 1 nM and 10 nM, 24 hours", "description": "(§1) Cells were immunostained with an anti-AR antibody and 4′,6-diamidino-2-phenylindole (DAPI) to determine the nuclear location of the AR. FIG. 5D: CV-1 cells were transiently transfected in 48-well plates with 100 ng of luciferase reporter plasmid regulated by 3 androgen response elements (3ARE), 25 ng of pSV40 β-gal, or with or without 20 ng of the human AR expression vector. […] Then whole cell lysates were prepared to assess luciferase and β-gal activities. Transfection experiments were repeated three times in triplicate. Relative luciferase units (RLUs) were determined from three independent transfections and are presented as the mean+/−SEM.\n(§2) Experiments were performed to assess the biological activity of IVMDHT. […] To determine the activity of IVMDHT in activating AR-mediated transcription, CV1 (FIG. 5D) and LNCaP cells (FIG. 5E) were transfected with an androgen-inducible luciferase reporter vector driven by AREs together either with or without the human AR expression vector."}, "human AR": {"biological_target": "T2, human AR (Homo sapiens, UniProt P10275)", "T2 construct": "expressed in transfected cells; host or cells: CV-1", "T2 sequence (P10275 1-920)": "T1 sequence (P10275 1-920 T878A) with A878T", "experiment": "Androgen-inducible (3ARE) luciferase reporter in CV-1 cells transfected with human AR expression vector", "assay_type": "cell-based", "conditions": "CV1 cells, 1 nM and 10 nM, 24 hours", "description": "as §1, §2"}, "AR": {"biological_target": "T3, AR (Mus musculus, UniProt P19091)", "T3 construct": "from tissue; host or cells: living C57/B6 male mice, intact or castrated; prostate and other organs", "T3 sequence (P19091 1-899)": "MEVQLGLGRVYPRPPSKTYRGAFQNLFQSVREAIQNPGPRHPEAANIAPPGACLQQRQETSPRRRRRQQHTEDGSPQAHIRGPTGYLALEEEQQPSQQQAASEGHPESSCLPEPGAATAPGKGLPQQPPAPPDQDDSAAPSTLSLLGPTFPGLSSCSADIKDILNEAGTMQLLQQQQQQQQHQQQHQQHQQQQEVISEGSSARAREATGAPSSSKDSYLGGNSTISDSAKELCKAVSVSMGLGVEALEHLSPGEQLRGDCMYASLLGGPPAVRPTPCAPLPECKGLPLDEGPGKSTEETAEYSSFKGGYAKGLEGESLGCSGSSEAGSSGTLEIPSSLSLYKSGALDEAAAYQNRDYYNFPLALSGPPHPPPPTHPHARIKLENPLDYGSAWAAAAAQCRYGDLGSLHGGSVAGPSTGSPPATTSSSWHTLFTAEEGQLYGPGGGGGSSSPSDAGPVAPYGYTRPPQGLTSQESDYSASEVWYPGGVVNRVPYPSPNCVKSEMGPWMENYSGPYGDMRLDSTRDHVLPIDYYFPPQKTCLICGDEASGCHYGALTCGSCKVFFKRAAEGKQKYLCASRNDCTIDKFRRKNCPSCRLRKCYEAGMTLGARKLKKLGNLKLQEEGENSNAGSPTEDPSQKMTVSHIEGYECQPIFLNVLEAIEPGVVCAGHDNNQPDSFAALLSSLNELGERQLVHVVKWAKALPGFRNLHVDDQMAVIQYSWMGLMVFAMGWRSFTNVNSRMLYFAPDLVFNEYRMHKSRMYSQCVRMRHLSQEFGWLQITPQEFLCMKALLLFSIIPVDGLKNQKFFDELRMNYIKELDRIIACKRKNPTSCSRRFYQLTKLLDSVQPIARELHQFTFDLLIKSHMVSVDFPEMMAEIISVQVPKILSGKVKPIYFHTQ", "experiment": "microPET imaging in intact and castrated C57/B6 male mice", "assay_type": "in vivo", "conditions": "1.2 MBq intraperitoneal, images at 1, 2 and 6 hours", "description": "FIGS. 6A-6E. The androgen analog ^124IVMDHT was intravenously injected into the tail-vein of intact (FIG. 6A) and castrated mice (FIG. 6B) and imaged at 1 hour (FIG. 6A panel 1, FIG. 6B panel 1), 2 hours (FIG. 6A panel 2, FIG. 6B panel 2) and 6 hours (FIG. 6A panel 3, FIG. 6B panel 3). […] The mice were then analyzed at 1 hour (FIG. 6D panel 1, FIG. 6E panel 1), 2 hour (FIG. 6D panel 2, FIG. 6E panel 2) and 6 hours (FIG. 6D panel 3, FIG. 6E panel 3). Positive images are shown with arrows.\nIn this example, microPET imaging and biodistribution assays will be performed using three available and biologically relevant animal models to fully examine the specific binding affinity of IVMDHT with the AR in vivo. […] Tissue samples were weighed and counted and the results expressed as % ID/g and total counts per organ. […] The biodistribution results will be analyzed in prostate and other non-AR enrich tissues from intact and castrated mice to determine specific uptake of ^124IVMDHT.\nTo determine the specific binding affinity of IVMDHT with the AR in vivo, microPET imaging and biodistribution assays were performed. The binding specificity of ^124IVMDHT in 4-month-old castrated and intact C57/B6 male mice (n=4 per group) was evaluated. […]\nUsing a similar experimental approach, IVNDHT was assessed in C57/B6 male mice. […] The intake rate of ^124IVNDHT was further assessed by intraperitoneal injection. […]"}, "endogenous AR [3]": {"biological_target": "T1, endogenous AR", "experiment": "AR nuclear translocation, immunostaining with anti-AR antibody and DAPI in LNCaP cells", "assay_type": "cell-based", "conditions": "48 hours without androgens, then 8 hours with compound", "description": "as §1, §2"}}, "note": "Numbering of substitutions follows the chain as printed."}
{"smiles": "C[C@]12CC[C@@H]3C4CCC(=O)C[C@@H]4C[C@@H](/C=C/I)[C@H]3[C@@H]1CC[C@@H]2O", "note": "(stereo partly drawn) [IVNDHT, 7α-(E-2′-iodovinyl)-19-nor-5α-dihydrotestosterone]", "values": [{"measurement": "half-life", "setting": "[1]", "result": "~1.5", "unit": "h"}]}
{"smiles": "C[C@]12CCC(=O)C[C@@H]1C[C@@H](/C=C/I)[C@@H]1[C@@H]2CC[C@]2(C)[C@@H](O)CC[C@@H]12", "note": "[IVDHT, 7α-(E-2′-iodovinyl)-5α-dihydrotestosterone]", "values": [{"measurement": "half-life", "setting": "[1]", "result": "~1.5", "unit": "h"}]}
{"smiles": "C[C@]12CCC(=O)C[C@@H]1C[C@@H](/C=C/I)[C@@H]1[C@@H]2CC[C@@]2(C)[C@H]1CC[C@]2(C)O", "note": "[IVMDHT, 7α-(E-2′-iodovinyl)-17α-methyl-5α-dihydrotestosterone]", "values": [{"measurement": "AR-mediated luciferase activity", "setting": "endogenous AR [2]", "result": "increase in AR-mediated luciferase activity"}, {"measurement": "AR-mediated luciferase activity", "setting": "human AR", "result": "increase in AR-mediated luciferase activity"}, {"measurement": "half-life", "setting": "[1]", "result": "~1.5", "unit": "h"}, {"measurement": "microPET signal in the vicinity of the bladder/prostate", "setting": "AR", "result": "low dosage and intraperitoneal injections extend the specific intake"}, {"measurement": "nuclear location of the AR protein", "setting": "endogenous AR [3]", "result": "uniform nuclear staining of the AR protein"}]}
